According to ChEMBL document CHEMBL1201862, “PubChem BioAssay data set” (2004):
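A five-concentration, 48-hour dose response in 96-well plates underlies each endpoint, interpolated linearly between surrounding concentrations. At the GI50, growth is halved.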 Active and inactive are the calls of the source. Rule as the data show it: active = GI50 up to about 1.1 µM and inactive = higher.

Legend:
Assay in all cases: DTP human tumour cell line panel, 48 h
786-0 = system: 786-0
OVCAR-3 = system: OVCAR-3
RPMI-8226 = system: RPMI-8226
SF-295 = system: SF-295
RXF 393 = system: RXF 393
OVCAR-4 = system: OVCAR-4
M14 = system: M14
SNB-75 = system: SNB-75
Malme-3M = system: Malme-3M
NCI-H226 = system: NCI-H226
SF-268 = system: SF-268
ACHN = system: ACHN
LOX IMVI = system: LOX IMVI
SNB-78 = system: SNB-78
IGROV-1 = system: IGROV-1
HT-29 = system: HT-29
KM12 = system: KM12
SF-539 = system: SF-539
TK-10 = system: TK-10

Measured: GI50

NNC(=O)CC(=O)Nc1ccccc1F
inactive: 786-0 > 100 µM | OVCAR-3 > 100 µM | RPMI-8226 > 100 µM | SF-295 > 100 µM | RXF 393 > 100 µM | OVCAR-4 > 100 µM | M14 > 100 µM | SNB-75 > 100 µM | Malme-3M > 100 µM | NCI-H226 > 100 µM | SF-268 > 100 µM | ACHN > 100 µM | LOX IMVI > 100 µM | SNB-78 > 100 µM | IGROV-1 > 100 µM | HT-29 > 100 µM | KM12 > 100 µM | SF-539 > 100 µM

CC(SC(=S)N1CCOCC1)c1cc2oc(=O)n(C)c2cc1Cl (centres undefined)
inactive: 786-0 > 100 µM | OVCAR-3 > 100 µM | RPMI-8226 58.2 µM | SF-295 > 100 µM | RXF 393 > 100 µM | OVCAR-4 > 100 µM | M14 > 100 µM | SNB-75 76 µM | Malme-3M > 100 µM | SF-268 > 100 µM | ACHN > 100 µM | TK-10 > 100 µM | LOX IMVI 40.9 µM | SNB-78 > 100 µM | IGROV-1 > 10 µM | HT-29 > 100 µM | KM12 > 100 µM | SF-539 76 µM

CN(C)C=C1C(=O)N(C)C(=O)N(C)C1=O
inactive: 786-0 > 100 µM | OVCAR-3 > 100 µM | RPMI-8226 > 100 µM | SF-295 > 100 µM | RXF 393 > 100 µM | OVCAR-4 > 100 µM | M14 > 100 µM | SNB-75 > 100 µM | Malme-3M > 100 µM | NCI-H226 > 100 µM | ACHN > 100 µM | TK-10 > 100 µM | LOX IMVI > 100 µM | SNB-78 > 100 µM | HT-29 > 100 µM | KM12 > 100 µM | SF-539 > 100 µM

COc1ccc(C/C(=N/O)C(=O)NCCc2cc(Br)c(OCCCN(C)C)c(Br)c2)cc1Br [APLYSAMINE 2]
inactive: 786-0 20 µM | OVCAR-3 21.6 µM | SF-295 18.8 µM | RXF 393 21.6 µM | OVCAR-4 17 µM | M14 17.7 µM | SNB-75 18.9 µM | Malme-3M 27.6 µM | SF-268 18.5 µM | ACHN 15.6 µM | TK-10 29.8 µM | LOX IMVI 16.2 µM | SNB-78 18.5 µM | HT-29 5.92 µM | KM12 16.6 µM | SF-539 13.6 µM
